Laboratory results published in patent US5041549A, “Heterocyclic spiro compounds and methods for preparing the same” (Yamanouchi Pharmaceutical Co., Ltd., priority 1987, dated 1991).
Like-named read-outs stand apart in the source and are kept apart here.

Key:
[1] = molecular target: M2-receptor of rat cerebellum (Rattus norvegicus, UniProt P10980); experiment: biochemical; type: binding
[2] = molecular target: T1, M1-receptor of rat cerebral cortex (Rattus norvegicus, UniProt P08482); experiment: Affinity for muscarinic receptor: [3H]pirenzepine binding to M1-receptor of rat cerebral cortex
T1 construct: M1 -receptor of rat cerebral cortex; from tissue; host or cells: rat cerebral cortex (membranes of rat brain)
T1 sequence (P08482 1-460): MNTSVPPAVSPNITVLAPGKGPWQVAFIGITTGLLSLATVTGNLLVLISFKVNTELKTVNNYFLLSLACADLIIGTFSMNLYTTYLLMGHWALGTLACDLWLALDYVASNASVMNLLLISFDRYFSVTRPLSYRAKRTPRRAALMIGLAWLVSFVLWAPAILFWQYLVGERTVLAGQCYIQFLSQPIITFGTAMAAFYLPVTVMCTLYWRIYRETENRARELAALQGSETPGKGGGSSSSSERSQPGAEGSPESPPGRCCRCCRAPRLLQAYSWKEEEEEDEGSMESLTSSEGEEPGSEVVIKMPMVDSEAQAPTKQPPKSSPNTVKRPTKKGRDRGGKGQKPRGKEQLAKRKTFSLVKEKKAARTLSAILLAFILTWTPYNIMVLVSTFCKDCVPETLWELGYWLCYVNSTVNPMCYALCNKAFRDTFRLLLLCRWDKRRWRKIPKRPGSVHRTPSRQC

tremor in mice = experiment: Induction of tremor in mice; conditions: sc

Sequence of M2-receptor of rat cerebellum (P10980 whole entry): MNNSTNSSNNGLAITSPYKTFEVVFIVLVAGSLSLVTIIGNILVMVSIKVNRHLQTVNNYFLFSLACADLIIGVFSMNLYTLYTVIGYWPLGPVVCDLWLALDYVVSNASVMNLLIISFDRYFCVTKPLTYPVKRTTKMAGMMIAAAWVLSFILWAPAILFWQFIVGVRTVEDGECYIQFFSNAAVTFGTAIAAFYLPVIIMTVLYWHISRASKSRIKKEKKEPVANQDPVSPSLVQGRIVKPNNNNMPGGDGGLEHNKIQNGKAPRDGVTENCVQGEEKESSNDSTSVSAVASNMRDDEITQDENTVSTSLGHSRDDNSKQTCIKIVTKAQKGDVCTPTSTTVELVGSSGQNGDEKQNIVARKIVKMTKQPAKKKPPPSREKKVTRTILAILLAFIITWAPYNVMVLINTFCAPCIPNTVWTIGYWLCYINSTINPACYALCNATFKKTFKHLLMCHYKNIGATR

In the case of `CC1SC2(CCN(C)CC2)CC12SCCS2` (centres unmarked) [Example 22, 10,14-Dimethyl-1,4,13-trithia-10-azadispiro[4.1.5.2]tetradecane], the IC50 [1] is reported as 710 nM, the IC50 [2] is reported as 39 nM and the “Dose, the effect of the above 2) (minimum effective dose for causing tremor)” value (“Dose, the effect” for short) (tremor in mice) is reported as greater than 30 mg/kg.
With `CCC1OC2(CCN(C)CC2)CC1=O` (centres unmarked) [Example 15, 2-ethyl-8-methyl-1-oxa-8-azaspiro[4.5]decan-3-one] the “Dose, the effect” value (tremor in mice) was greater than 30 mg/kg.
With `O=C1CCCN1CC#CCN1CCCC1` [Oxotremorine, reference compound] the IC50 [1] was 4.9 nM, the IC50 [2] was 68 nM and the “Dose, the effect” value (tremor in mice) was 0.2 mg/kg.
`CC1OC2(CN3CCC2CC3)CC12SCCS2` (single isomer, unassigned) [Example 33, 5'-Methyl-dispiro[1-azabicyclo[2.2.2]octane-3,2'-oxolane-4',2"-[1.3]dithiolane]] was tested, and the IC50 [1] was 310 nM, the IC50 [2] was 17 nM and the “Dose, the effect” value (tremor in mice) was greater than 30 mg/kg.
In the case of `C=C1CC2(CCN(C)CC2)OC1C` (centres unmarked) [Example 5, 2,8-dimethyl-3-methylene-1-oxa-8-azaspiro[4,5]decane], the IC50 [1] is reported as 25100 nM, the IC50 [2] is reported as 3320 nM and the “Dose, the effect” value (tremor in mice) is reported as greater than 30 mg/kg.
With `CCC1OC2(CCN(C)CC2)CC12OCCS2` (centres unmarked) [Example 29, 14-ethyl-10-methyl-1,13-dioxa-4-thia-10-azadispiro[4.1.5.2]tetradecane] the IC50 [1] was 640 nM, the IC50 [2] was 49 nM and the “Dose, the effect” value (tremor in mice) was greater than 30 mg/kg.
For `COC(=O)C1=CCCN(C)C1` [Arecoline, reference compound], the “Dose, the effect” value (tremor in mice) was 5 mg/kg.
With `C=C1CC2(CCN(C)CC2)OC1CC` (centres unmarked) [Example 36, 2-Ethyl-8-methyl-3-methylene-1-oxa-8-azaspiro[4.5]decane] the IC50 [1] was 8960 nM, the IC50 ([2]; [3H]pirenzepine, M1-receptor, rat cerebral cortex, read-out: Receptor-affinity IC50, Pirenzepine binding) was 1260 nM and the “Dose, the effect” value (tremor in mice) was greater than 30 mg/kg.
